One series addresses T1, SARS-Cov-2 3CLpro (Severe acute respiratory syndrome coronavirus 2, UniProt P0DTD1).
T1 construct: 3CLpro was added using a Multidrop Combi
Kind of series: SARS-Cov-2 3CLpro protease assay (SAMDI-MS). The format is biochemical.

The test system of series [1] is human beta-coronavirus OC43. Put plainly: OC43 coronavirus antiviral assay in HeLa cells. The conditions noted are these: Betacoronavirus 1, 144 h, OC43, 6 days at 33° C., cell-titer-glo. The format is cell-based. How it is done: (§1) The human beta-coronavirus OC43 was purchased from ATCC (Manassas, VA) and propagated using HCT-8 human colorectal epithelial cells (ATCC). HeLa human cervical epithelial cells (ATCC) were used as susceptible host cell lines and were cultured using EMEM media, supplemented with 10% fetal bovine serum (FBS), 1% (v/v) penicillin/streptomycin (P/S), 1% (v/v) HEPES and 1% (v/v) cellgro Glutagro™ supplement (all Corning, Manassas, VA) at 37° C. For the OC43 antiviral assay, 1.5×10^4 HeLa cells per well were plated in 100 μL complete media in white 96-well plates with clear bottoms at 37° C. for up to 24 h to facilitate attachment and allow cells to recover from seeding stresses. Next day, the cell culture medium was removed. Serially diluted compounds in 100 μL assay media (EMEM, 2% FBS, 1% P/S, 1% cellgro Glutagro™ supplement, 1% HEPES) were added to the cells and incubated for 4 h at 37° C. in a humidified 5% CO2 incubator. 100 μL of OC43 virus stock was diluted to a concentration known to produce optimal cytopathic effect, inducing 80-90% reduction in cell viability. 96-well plates were incubated for 6 days at 33° C.; each plate contains uninfected control wells as well as virus-infected wells that were not treated with compound. Cytotoxicity plates without the addition of OC43 virus were carried out in parallel. At the end of the incubation period, 100 μL cell culture supernatant was replaced with 100 μL cell-titer-glo reagent (Promega, Madison, WI) and incubated for at least 10 min at rt prior to measuring luminescence. Luminescence was measured on a Perkin Elmer (Waltham, MA) Envision plate reader. Antiviral % inhibition was calculated as follows: [(Compound treated cells infected sample)−(no compound infected control)]/[(Uninfected control)−(no compound infected control)]*100; Using GraphPad (San Diego, CA) prism software version 8.3.1, the antiviral dose-response plot was generated as a sigmoidal fit, log(inhibitor) vs response-variable slope (four parameters) model and the EC50 was calculated which is the predicted compound concentration corresponding to a 50% inhibition of the viral cytopathic effect.
(§2) Table 2 indicates related EC50 and CC50 values for the tested compounds ‘A’ indicates an EC50<100 nM, ‘B’ indicates an EC50 of ≥100 nM and <1000 nM, ‘C’ indicates an EC50≥1000 nM and <10000 nM and ‘D’ indicates an EC50≥10000 nM and <100000 nM. For CC50, the values are reported in micromolar (M), ‘A’ indicates a CC50≥10000 nM and ‘B’ indicates a CC50≥1 μM and <10 μM.

Series [2] can be described thus: Cytotoxicity in HeLa cells without OC43 virus. The format is cell-based. Particulars: human, HeLa cells (uninfected), in parallel. The protocol: as §1, §2
The subject of series [3] is SARS-CoV-2 B.1.1.7 lineage. Put plainly: microbe, parasite or virus in culture. The conditions noted are these: Severe acute respiratory syndrome coronavirus 2, 96 h; read-out: A549-dual_ACE2_TMPRSS2 (EC50). Type of series: cell-based.
A further series has as its target T2, human cathepsin L (Homo sapiens, UniProt P07711).
T2 construct: purchased R&D Systems
Put plainly: Cathepsin L assay. The format is biochemical. The conditions noted are these: 10 pM human cathepsin L, Z-FR-AMC 2 μM. The protocol:
For the cathepsin L assay, 10 pM of human cathepsin L (R&D Systems; Minneapolis, MN) was preincubated for 30 mins with test compounds. Reactions were initiated by the addition of a peptide substrate Z-FR-AMC (final concentration 2 μM, Anaspec; Fremont, CA). Fluorescence was measured at 2-minute intervals for 30 mins using a 355/460 excitation/emission filter module on an Envision plate reader (Perkin Elmer; Waltham, MA). The IC50 values were calculated for each assay by fitting the curves using a four-parameter equation in GraphPad Prism.
Table 4 indicates related IC50 values for the tested compounds where ‘A’ indicates an IC50≥10000 nM, ‘B’ indicates an IC50 of ≥1000 nM and <10000 nM, ‘C’ indicates an IC50; ≥100 nM and <1000 nM, ‘D’ indicates an IC50<100 nM.

Another series in a line: in vitro. The conditions noted are these: human.
[4] abbreviates: 30 mins preincubation, duplex peptide substrates, read-out: SARS-Cov-2 (3CLpro IC50).

Molecules are shown by their SMILES. Where two headings read alike, the source gives them in different places.

T2 sequence (P07711 114-333): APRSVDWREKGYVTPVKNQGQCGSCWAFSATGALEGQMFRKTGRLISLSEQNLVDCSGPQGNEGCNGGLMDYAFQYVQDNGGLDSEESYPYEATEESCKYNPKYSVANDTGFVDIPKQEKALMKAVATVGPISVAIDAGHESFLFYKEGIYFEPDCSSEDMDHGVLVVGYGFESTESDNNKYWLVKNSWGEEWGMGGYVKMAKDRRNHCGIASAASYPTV

For the compound `CC(C)(C)[C@H](NC(=O)C(F)(F)F)C(=O)N1C[C@H]2[C@@H]([C@H]1C(=O)NC(C#N)c1cccnc1)[C@H]1C=C[C@@H]2C1` (stereo partly drawn) [Compound 3, (1R,2S,3S,6R,7S)—N-[cyano(pyridin-3-yl)methyl]-4-[(2S)-3,3-dimethyl-2-(2,2,2-trifluoroacetamido)butanoyl]-4-azatricyclo[5.2.1.0^{2,6}]dec-8-ene-3-carboxamide], the IC50 on SARS-Cov-2 3CLpro (setting [4]) was less than 0.02 µM; against human cathepsin L, not below 10 µM. Besides, the EC50 in series [1] and in series [3] was 0.1 to 1 µM each time. In series [2], this compound yielded a CC50 at 6 days not below 10 µM. The CC50 in the series “in vitro” was more than 1 µM.
Regarding `CC(C)(C)[C@H](NC(=O)C(F)(F)F)C(=O)N1C[C@H]2[C@@H]([C@H]1C(=O)NC(C#N)c1cnc3ccccn13)[C@H]1C=C[C@@H]2C1` (stereo partly drawn) [Compound 2, (1S,3aR,4S,7R,7aS)—N-(cyano(imidazo[1,2-a]pyridin-3-yl)methyl)-2-((S)-3,3-dimethyl-2-(2,2,2-trifluoroacetamido)butanoyl)-2,3,3a,4,7,7a-hexahydro-1H-4,7-methanoisoindole-1-carboxamide], the IC50 at SARS-Cov-2 3CLpro (setting [4]) was less than 0.02 µM; at human cathepsin L it was not below 10 µM. Further, the EC50 in series [1] and in series [3] was 0.1 to 1 µM throughout. In addition, the CC50 at 6 days in series [2] was not below 10 µM. Further, the CC50 in “in vitro” is more than 1 µM.
For `CC(C)(C)[C@H](NC(=O)C(F)(F)F)C(=O)N1C[C@@H]2[C@H]3C[C@@H]([C@@H]2[C@H]1C(=O)NC(C#N)c1cnn2cc(F)ccc12)[C@H](F)C3` (stereo partly shown) [Compound 20], the IC50 at SARS-Cov-2 3CLpro (setting [4]) was less than 0.02 µM. In addition, the EC50 in series [1] was 0.1 to 1 µM; in series [3], less than 0.1 µM. The compound further gave a CC50 at 6 days in series [2] not below 10 µM. The compound further displayed a CC50 in “in vitro” of more than 1 µM.
Turning to `Cn1cc(C(C#N)NC(=O)[C@@H]2[C@@H]3[C@H](CN2C(=O)[C@@H](NC(=O)C(F)(F)F)C(C)(C)C)[C@@H]2C=C[C@H]3C2)cn1` (stereo partly drawn) [Compound 6, (1R,2S,3S,6R,7S)—N-[cyano(1-methylpyrazol-4-yl)methyl]-4-[(2S)-3,3-dimethyl-2-(2,2,2-trifluoroacetamido)butanoyl]-4-azatricyclo[5.2.1.0^{2,6}]dec-8-ene-3-carboxamide], the IC50 on SARS-Cov-2 3CLpro (setting [4]) was in the range of 0.02 to 0.2 µM. For the same compound, the EC50 fell in the range of 1 to 10 µM in series [1] and 0.1 to 1 µM in series [3]. The compound further came in with a CC50 at 6 days in series [2] not below 10 µM. The compound also gave a CC50 in the series “in vitro” of more than 1 µM.
In the case of `N#CC(NC(=O)[C@@H]1[C@@H]2[C@H](CN1C(=O)c1cc3c(F)cc(F)cc3[nH]1)[C@@H]1C=C[C@H]2C1)c1cncc2ccccc12` (stereo partly drawn) [Compound 8, (1R,2S,3S,6R,7S)—N-[cyano(isoquinolin-4-yl)methyl]-4-(4,6-difluoro-1H-indole-2-carbonyl)-4-azatricyclo[5.2.1.0^{2,6}]dec-8-ene-3-carboxamide], the IC50 at SARS-Cov-2 3CLpro (setting [4]) was in the range of 0.02 to 0.2 µM. The EC50 in series [1] and in series [3] was 0.1 to 1 µM each time. In series [2], this compound returned a CC50 at 6 days of 1 to 10 µM. For the same compound, the CC50 in “in vitro” is more than 1 µM.
For `CC(C)(C)[C@H](NC(=O)C(F)(F)F)C(=O)N1C[C@@H]2[C@H]3C[C@@H]([C@@H]2[C@H]1C(=O)NC(C#N)c1cncc2ccccc12)[C@H](F)C3` (stereo partly drawn) [Compound 7, (1S,2R,3S,6R,7S,9R)—N-[cyano(isoquinolin-4-yl)methyl]-4-[(2S)-3,3-dimethyl-2-(2,2,2-trifluoroacetamido)butanoyl]-9-fluoro-4-azatricyclo[5.2.1.0^{2,6}]decane-3-carboxamide], at SARS-Cov-2 3CLpro (setting [4]), the IC50 was less than 0.02 µM. For the same compound, the EC50 in series [1] and in series [3] was less than 0.1 µM each time. Besides, the CC50 at 6 days in series [2] was not below 10 µM. Also, the CC50 in the series “in vitro” is more than 1 µM.
For `COc1cccc2cncc([C@H](C#N)NC(=O)[C@@H]3[C@@H]4[C@H](CN3C(=O)[C@@H](NC(=O)C(F)(F)F)C(C)(C)C)[C@H]3C[C@@H]4[C@H](F)C3)c12` [Compound 29], the IC50 on SARS-Cov-2 3CLpro (setting [4]) was in the range of 0.02 to 0.2 µM. Moreover, the EC50 in series [1] was 0.1 to 1 µM; in series [3], less than 0.1 µM. For the same compound, the CC50 at 6 days in series [2] is not below 10 µM. This compound yielded a CC50 in the series “in vitro” of more than 1 µM.
For `CC(C)(C)[C@H](NC(=O)C(F)(F)F)C(=O)N1C[C@H]2[C@@H]([C@H]1C(=O)NC(C#N)c1cnc3ccccc3c1)[C@H]1C=C[C@@H]2C1` (stereo partly shown) [Compound 15], in that order: less than 0.02 µM, 0.1 to 1 µM, 0.1 to 1 µM, not below 10 µM and more than 1 µM.
Turning to `COc1cccn2ncc(C(C#N)NC(=O)[C@@H]3[C@@H]4[C@H](CN3C(=O)[C@@H](NC(=O)C(F)(F)F)C(C)(C)C)[C@H]3C[C@@H]4[C@H](F)C3)c12` (stereo partly shown) [Compound 19], the IC50 on SARS-Cov-2 3CLpro (setting [4]) was less than 0.02 µM. Further, the concentration giving a half-maximal response (EC50) is 0.1 to 1 µM in series [1] and less than 0.1 µM in series [3]. Besides, in series [2], the CC50 at 6 days was not below 10 µM. Further, the CC50 in “in vitro” is more than 1 µM.
Consider `N#CC(NC(=O)[C@@H]1[C@@H]2[C@H](CN1C(=O)[C@H](CC1CC1)NC(=O)C(F)(F)F)[C@H]1C[C@@H]2[C@H](F)C1)c1cnn2ccccc12` (stereo partly shown) [Compound 24], for which the IC50 on SARS-Cov-2 3CLpro (setting [4]) is less than 0.02 µM. Further, the EC50 in series [1] and in series [3] was 0.1 to 1 µM throughout. This compound displayed a CC50 at 6 days in series [2] not below 10 µM. This compound also gave a CC50 in the series “in vitro” of more than 1 µM.
Regarding `CC(C)(C)[C@H](NC(=O)C(F)(F)F)C(=O)N1C[C@@H]2[C@H]3C[C@@H]([C@@H]2[C@H]1C(=O)NC1(C#N)CCCc2ccncc21)[C@H](F)C3` (stereo partly shown) [Compound 31], the IC50 on SARS-Cov-2 3CLpro (setting [4]) was 2 to 20 µM; at SARS-Cov-2 3CLpro (bound given in table footnote, read-out: SARS-Cov-2 activity (footnote of Table 1)), more than 2 µM. Also, the EC50 was 1 to 10 µM in series [1] and not below 1 µM in series [3]. Also, the CC50 at 6 days in series [2] is not below 10 µM. The compound also showed a CC50 in “in vitro” of more than 1 µM.
As for `COc1cccc2cncc(C(C#N)NC(=O)[C@@H]3[C@@H]4[C@H](CN3C(=O)[C@@H](NC(=O)C(F)(F)F)C(C)(C)C)[C@H]3C[C@@H]4[C@H](F)C3)c12` (stereo partly shown) [Compound 26], the IC50 on SARS-Cov-2 3CLpro (setting [4]) was less than 0.02 µM. Further, the EC50 in series [1] and in series [3] was less than 0.1 µM each time. The same compound came in with a CC50 at 6 days in series [2] not below 10 µM. For the same compound, the CC50 in “in vitro” is more than 1 µM.
Take `CC(C)(C)[C@H](NC(=O)C(F)(F)F)C(=O)N1C[C@H]2[C@@H]([C@H]1C(=O)NC1(C#N)CCc3ccncc31)[C@H]1C=C[C@@H]2C1` (stereo partly drawn) [Compound 5, (1R,2S,3S,6R,7S)—N-{7-cyano-5H,6H-cyclopenta[c]pyridin-7-yl}-4-[(2S)-3,3-dimethyl-2-(2,2,2-trifluoroacetamido)butanoyl]-4-azatricyclo[5.2.1.0^{2,6}]dec-8-ene-3-carboxamide]: the IC50 at SARS-Cov-2 3CLpro (setting [4]) is 0.2 to 2 µM. The EC50 is 1 to 10 µM in series [1] and not below 1 µM in series [3]. In series [2], this compound returned a CC50 at 6 days not below 10 µM. The same compound showed a CC50 in the series “in vitro” of more than 1 µM.
As to `CC(C)(C)[C@H](NC(=O)C(F)(F)F)C(=O)N1C[C@@H]2[C@H]3C[C@@H]([C@@H]2[C@H]1C(=O)NC(C#N)c1cncc(Cl)c1Cl)[C@H](F)C3` (stereo partly drawn) [Compound 10, (1S,2R,3S,6R,7S,9R)—N-[cyano(4,5-dichloropyridin-3-yl)methyl]-4-[(2S)-3,3-dimethyl-2-(2,2,2-trifluoroacetamido)butanoyl]-9-fluoro-4-azatricyclo[5.2.1.0^{2,6}]decane-3-carboxamide], the IC50 on SARS-Cov-2 3CLpro (setting [4]) was less than 0.02 µM. Besides, the values for the EC50 in series [1] and in series [3] were 0.1 to 1 µM and not below 1 µM, respectively. For the same compound, the CC50 at 6 days in series [2] is not below 10 µM. The CC50 in the series “in vitro” is more than 1 µM.

As usually defined, the EC50 is the concentration that produces a half-maximal response.

The record behind these values is US20240182444A1, “ANTI-VIRAL COMPOUNDS” (Aligos Therapeutics, Inc., priority 2022, published 2024).
